Data set [1] can be described thus: Clinical study: safety, side effects, taste, psychedelic effects (Bowdle, Bond and Lader questionnaires).
The nature of data set [2]: Clinical study: plasma concentrations and pharmacokinetics after (S)-ketamine OTF. The conditions noted are these: for Tmax: calculated using a PK model (NONMEM); for plasma level of the metabolite following administration of an OTF as compared to intravenous administration of 20 mg (S)-ketamine: FIGS. 3-8.

These results are taken from patent US11992561B2 (priority 2020, dated 2024).

As usually defined, the Tmax is the time from dosing to the highest level.

On to `CNC1(c2ccccc2Cl)CCCCC1=O` (racemic) [(S)-ketamine, (S)-(±)-2-(2-chlorophenyl)-2-(methylamino)cyclohexan-1-one], for which, in data set [1] (20 mg (S)-ketamine IV), the “Dizziness (number of adverse events)” value is 4, the “Drowsiness (number of adverse events)” value is on record as 3, the “Dry eyes (number of adverse events)” value stood at 1 and the “Headache (number of adverse events)” value amounted to 3. In data set [1] (20 mg (S)-ketamine IV), the “High blood pressure (SBP > 180 mm Hg) (number of adverse events)” value amounted to 2, the “Nausea (number of adverse events)” value was 2, the “Sweating (number of adverse events)” value was determined as 1 and the “Total (number of adverse events)” value was 17. The “Whistling noise in the ear (number of adverse events)” value in data set [1] (20 mg (S)-ketamine IV) is on record as 1. For the same compound, in data set [1] (50 mg (S)-ketamine as OTF), the “Blurred vision (number of adverse events)” value was determined as 1, the “Bradykinesia (number of adverse events)” value was found to be 1, the “Dizziness (number of adverse events)” value is on record as 1 and the “Feeling of drunkenness (number of adverse events)” value amounted to 2. Moreover, in data set [1] (50 mg (S)-ketamine as OTF), the “Headache (number of adverse events)” value stood at 1, the “Nausea (number of adverse events)” value turned out to be 1 and the “Total (number of adverse events)” value is 7. In data set [1] (100 mg (S)-ketamine as OTF), the “Bradykinesia (number of adverse events)” value was determined as 1, the “Dizziness (number of adverse events)” value amounted to 3, the “Headache (number of adverse events)” value is 2 and the “Nausea (number of adverse events)” value is 1. For the same compound, in data set [1] (100 mg (S)-ketamine as OTF), the “Numbness of the tongue (number of adverse events)” value is given as 2 and the “Total (number of adverse events)” value is given as 9.

`N[C@]1(c2ccccc2Cl)CCC[C@H](O)C1=O` [(S)-Hydroxynorketamine]: the Tmax was 1.35 h in data set [2] (50 mg (S)-Ketamine OTF) and 1.82 h in data set [2] (100 mg (S)-Ketamine OTF). Moreover, the Cmax plasma concentration in data set [2] (All data, 50 mg (S)-ketamine OTF (formulation 15)) was determined as 94 ng/mL; in data set [2] (Buccally, 50 mg (S)-ketamine OTF, n=5), 81 ng/mL; in data set [2] (Sublingually, 50 mg (S)-ketamine OTF, n=15) it was 98 ng/mL. In addition, the “plasma level of the metabolite following administration of an OTF as compared to intravenous administration of 20 mg (S)-ketamine” value in data set [2] is recorded as “higher”.

With `N[C@]1(c2ccccc2Cl)CCCCC1=O` [(S)-Norketamine], the figures for the Tmax in data set [2] (50 mg (S)-Ketamine OTF) and in data set [2] (100 mg (S)-Ketamine OTF) were 1.02 h and 1.3 h, respectively. In addition, the Cmax plasma concentration was 330 ng/mL in data set [2] (All data, 2 × 50 mg (S)-ketamine OTF (formulation 15)) and 450 ng/mL in data set [2] (Buccally, 2 × 50 mg (S)-ketamine OTF, n=5). Further, the “plasma level of the metabolite following administration of an OTF as compared to intravenous administration of 20 mg (S)-ketamine” value in data set [2] is reported as “higher”.

Regarding `CNC1(c2ccccc2Cl)CCCCC1=O` (stereo not shown) [ketamine], the “plasma levels of ketamine, intravenous administration versus administration of an OTF” value in data set [2] (FIGS. 9-11) is recorded as “higher for intravenous administration”.
